From ChEMBL document CHEMBL1201862, “PubChem BioAssay data set” (2004)
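How tested: cells in 96-well plates exposed to compound for 48 hours at five concentrations. GI50 = concentration required for 50% inhibition of growth.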 Active and inactive are the calls of the source. Cut-off read from the data, not from the text of the source: active = GI50 up to about 1.1 µM and inactive = higher.

Columns and labels:
Test in all cases: inhibition of tumour cell growth, NCI panel, 48 h
SK-MEL-28 = system: SK-MEL-28
COLO 205 = system: COLO 205
NCI-H522 = system: NCI-H522
RXF 393 = system: RXF 393
DMS-114 = system: DMS-114
OVCAR-4 = system: OVCAR-4
HT-29 = system: HT-29
HCT-116 = system: HCT-116
HCC 2998 = system: HCC 2998
786-0 = system: 786-0
OVCAR-3 = system: OVCAR-3
Hs-578T = system: Hs-578T
NCI/ADR-RES = system: NCI/ADR-RES
LOX IMVI = system: LOX IMVI
DU-145 = system: DU-145
MCF7 = system: MCF7
SR = system: SR
OVCAR-5 = system: OVCAR-5
MDA-N = system: MDA-N
T47D = system: T47D

SMILES | GI50 (SK-MEL-28) | GI50 (COLO 205) | GI50 (NCI-H522) | GI50 (RXF 393) | GI50 (DMS-114) | GI50 (OVCAR-4) | GI50 (HT-29) | GI50 (HCT-116) | GI50 (HCC 2998) | GI50 (786-0) | GI50 (OVCAR-3) | GI50 (Hs-578T) | GI50 (NCI/ADR-RES) | GI50 (LOX IMVI) | GI50 (DU-145) | GI50 (MCF7) | GI50 (SR) | GI50 (OVCAR-5) | GI50 (MDA-N) | GI50 (T47D)
Cc1nc(N)nn1C1OCC(O)C(O)C1O (stereo not given) | > 100 µM (inactive) | > 100 µM (inactive) | > 100 µM (inactive) | > 100 µM (inactive) | > 100 µM (inactive) | > 100 µM (inactive) | > 100 µM (inactive) | > 100 µM (inactive) | > 100 µM (inactive) | > 100 µM (inactive) | > 100 µM (inactive) | – | – | – | – | – | – | – | – | –
O=C(Nc1ccc2c(c1)oc(=O)c1ccccc12)C(Cl)Cl | > 100 µM (inactive) | 66.2 µM (inactive) | > 100 µM (inactive) | > 100 µM (inactive) | – | > 10 µM (inactive) | 28.1 µM (inactive) | 69.3 µM (inactive) | 63.5 µM (inactive) | > 100 µM (inactive) | 28.8 µM (inactive) | > 100 µM (inactive) | > 100 µM (inactive) | > 100 µM (inactive) | > 100 µM (inactive) | 34.8 µM (inactive) | 45 µM (inactive) | > 100 µM (inactive) | > 100 µM (inactive) | > 100 µM (inactive)
COc1nn(Cc2ccccn2)c2ccc([N+](=O)[O-])cc12 | > 100 µM (inactive) | > 100 µM (inactive) | 47.8 µM (inactive) | 42.4 µM (inactive) | – | > 100 µM (inactive) | 70.6 µM (inactive) | 62.4 µM (inactive) | 84.7 µM (inactive) | > 100 µM (inactive) | > 100 µM (inactive) | 19.4 µM (inactive) | 64.4 µM (inactive) | 53.6 µM (inactive) | > 100 µM (inactive) | > 100 µM (inactive) | 28.4 µM (inactive) | > 100 µM (inactive) | 27.8 µM (inactive) | 77.8 µM (inactive)
O=[N+]([O-])C(/C=C(\Cl)[N+](=O)[O-])=C(N1CCOCC1)N1CCOCC1 | > 100 µM (inactive) | 19.8 µM (inactive) | 41.8 µM (inactive) | 31.5 µM (inactive) | – | 25.9 µM (inactive) | 33.4 µM (inactive) | 25.3 µM (inactive) | 24 µM (inactive) | 16.7 µM (inactive) | 19.7 µM (inactive) | 0.232 µM (active) | > 100 µM (inactive) | 85.9 µM (inactive) | > 100 µM (inactive) | 17.6 µM (inactive) | 39.6 µM (inactive) | 21.2 µM (inactive) | > 100 µM (inactive) | 24.5 µM (inactive)
COc1cc([C@@]23OC[C@@H]4[C@@H](OC[C@@H]42)c2cc4c(cc23)OCO4)cc(OC)c1OC | 23.5 µM (inactive) | < 0.01 µM (active) | < 0.01 µM (active) | 0.873 µM (active) | – | 5.19 µM (inactive) | < 0.01 µM (active) | < 0.01 µM (active) | < 0.01 µM (active) | < 0.01 µM (active) | < 0.01 µM (active) | < 0.01 µM (active) | < 0.01 µM (active) | < 0.01 µM (active) | < 0.01 µM (active) | < 0.01 µM (active) | < 0.01 µM (active) | > 48.2 µM (inactive) | < 0.01 µM (active) | 50.8 µM (inactive)
Cc1ccc(Cc2nn(C)c(=O)n2-n2cccc2)cc1 | > 100 µM (inactive) | > 100 µM (inactive) | > 100 µM (inactive) | > 100 µM (inactive) | – | > 100 µM (inactive) | > 100 µM (inactive) | > 100 µM (inactive) | > 100 µM (inactive) | > 100 µM (inactive) | > 100 µM (inactive) | > 100 µM (inactive) | > 100 µM (inactive) | > 100 µM (inactive) | > 100 µM (inactive) | > 100 µM (inactive) | > 100 µM (inactive) | > 100 µM (inactive) | > 100 µM (inactive) | > 100 µM (inactive)
CCOC(=O)C(C)(C)C(O)C(C)C (stereo not given) | > 100 µM (inactive) | > 100 µM (inactive) | > 100 µM (inactive) | > 100 µM (inactive) | – | > 100 µM (inactive) | > 100 µM (inactive) | > 100 µM (inactive) | > 100 µM (inactive) | > 100 µM (inactive) | > 100 µM (inactive) | > 100 µM (inactive) | > 100 µM (inactive) | > 100 µM (inactive) | > 100 µM (inactive) | > 100 µM (inactive) | > 100 µM (inactive) | > 100 µM (inactive) | > 100 µM (inactive) | > 100 µM (inactive)
COCCOCCOCCOc1cccc2c1C(=O)c1cccc(OCCOCCOCCOC)c1C2=O | > 100 µM (inactive) | > 100 µM (inactive) | – | 92.9 µM (inactive) | > 100 µM (inactive) | > 100 µM (inactive) | > 100 µM (inactive) | > 100 µM (inactive) | > 100 µM (inactive) | > 100 µM (inactive) | 92.5 µM (inactive) | – | – | 70.1 µM (inactive) | – | – | – | – | – | –
CCCn1cc2c(SC)nc(SC)nc2n1 | > 100 µM (inactive) | > 100 µM (inactive) | – | > 100 µM (inactive) | > 100 µM (inactive) | > 100 µM (inactive) | > 100 µM (inactive) | > 100 µM (inactive) | > 100 µM (inactive) | – | – | – | – | > 100 µM (inactive) | – | – | > 100 µM (inactive) | > 100 µM (inactive) | – | –
O=C1C(=O)N(c2cc(Cl)ccc2Cl)C(=O)C(=O)C1c1nc2ccccc2o1 | > 100 µM (inactive) | > 100 µM (inactive) | 90.6 µM (inactive) | > 100 µM (inactive) | > 89.1 µM (inactive) | > 100 µM (inactive) | > 100 µM (inactive) | > 100 µM (inactive) | > 100 µM (inactive) | > 100 µM (inactive) | > 67.5 µM (inactive) | – | – | > 100 µM (inactive) | – | – | – | > 100 µM (inactive) | – | –
C1=CC(=NN=P(c2ccccc2)(c2ccccc2)c2ccccc2)C=C1 | > 100 µM (inactive) | > 100 µM (inactive) | 88.5 µM (inactive) | > 100 µM (inactive) | 51.9 µM (inactive) | > 100 µM (inactive) | > 100 µM (inactive) | – | > 100 µM (inactive) | > 100 µM (inactive) | > 100 µM (inactive) | – | – | > 100 µM (inactive) | – | – | – | > 100 µM (inactive) | – | –
CN(CCCNC(=O)c1nn(-c2ccccc2)c2c1ccc1ccccc12)CCCNC(=O)c1nn(-c2ccccc2)c2c1ccc1ccccc12 | 1.74 µM (inactive) | 1.65 µM (inactive) | 1.79 µM (inactive) | 1.76 µM (inactive) | – | 1.82 µM (inactive) | 1.84 µM (inactive) | 1.82 µM (inactive) | 1.31 µM (inactive) | 2.01 µM (inactive) | 1.5 µM (inactive) | 2.58 µM (inactive) | 1.8 µM (inactive) | 1.73 µM (inactive) | 1.91 µM (inactive) | 1.8 µM (inactive) | 1.24 µM (inactive) | 2.3 µM (inactive) | 1.68 µM (inactive) | 1.82 µM (inactive)
C=C(C)C(=O)OC1C(C(C)CCCO)=C(CO)CC2OC(=O)C(=C)C21 (stereo not given) | 20 µM (inactive) | 15.1 µM (inactive) | 3.44 µM (inactive) | 13.8 µM (inactive) | – | 28.1 µM (inactive) | 18.3 µM (inactive) | 14.6 µM (inactive) | 17.7 µM (inactive) | 4.13 µM (inactive) | 17.6 µM (inactive) | 16.8 µM (inactive) | 33.5 µM (inactive) | 10.1 µM (inactive) | 14.6 µM (inactive) | 11 µM (inactive) | 14.5 µM (inactive) | 22.1 µM (inactive) | 16.7 µM (inactive) | 17.4 µM (inactive)
c1ccc(C2C3=C(c4ccccc4CC3)N3c4cc5c(cc4=NC34CCCCC24)Nc2ccccc2N=5)cc1 (stereo not given) | > 10 µM (inactive) | > 10 µM (inactive) | 1 µM (active) | 6.59 µM (inactive) | – | 5.79 µM (inactive) | 7.87 µM (inactive) | 5.55 µM (inactive) | > 10 µM (inactive) | 7.14 µM (inactive) | > 10 µM (inactive) | > 10 µM (inactive) | 6.79 µM (inactive) | 8.04 µM (inactive) | > 10 µM (inactive) | 7.69 µM (inactive) | 1.11 µM (active) | > 10 µM (inactive) | 5.83 µM (inactive) | 7.53 µM (inactive)
c1ccc(N2N=C(c3ccco3)CC2c2ccco2)cc1 (stereo not given) | > 100 µM (inactive) | > 100 µM (inactive) | 46.9 µM (inactive) | 52.4 µM (inactive) | 49.2 µM (inactive) | > 100 µM (inactive) | 75.9 µM (inactive) | 32.5 µM (inactive) | – | > 100 µM (inactive) | 59.6 µM (inactive) | – | – | > 100 µM (inactive) | – | – | 30.3 µM (inactive) | > 100 µM (inactive) | – | –
Cc1occc1/C(S)=N\c1ccc(Cl)c(COC(C)(C)C)c1 | 16.5 µM (inactive) | 15.7 µM (inactive) | 14.5 µM (inactive) | 14.9 µM (inactive) | – | 15.3 µM (inactive) | 15.7 µM (inactive) | 17.9 µM (inactive) | 18.2 µM (inactive) | 16.3 µM (inactive) | 15.1 µM (inactive) | 20.2 µM (inactive) | 16.1 µM (inactive) | 17.3 µM (inactive) | 20.1 µM (inactive) | 17.1 µM (inactive) | 17.6 µM (inactive) | 19.4 µM (inactive) | 16.1 µM (inactive) | 12.1 µM (inactive)
Cc1ccc2nc(-c3ccc(C(C)(C)C)cc3)oc(=O)c2c1 | 27.4 µM (inactive) | 18.2 µM (inactive) | 11.5 µM (inactive) | 36.5 µM (inactive) | – | 20.7 µM (inactive) | 19.6 µM (inactive) | 17 µM (inactive) | 14.6 µM (inactive) | 25.1 µM (inactive) | 21.4 µM (inactive) | 27.7 µM (inactive) | 17.7 µM (inactive) | 16.4 µM (inactive) | 26.7 µM (inactive) | 23.9 µM (inactive) | 21.2 µM (inactive) | 28.8 µM (inactive) | 22.9 µM (inactive) | 21.4 µM (inactive)
